Legend:
blackgrass = assay: Test C preemergence/postemergence greenhouse plant response rating 0 to 100; assay type: in vivo, Alopecurus myosuroides; conditions: POSTEMERGENCE; for Plant response rating, Blackgrass: 0 to 100 scale
Method in brief: (§1)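 Compounds in non-phytotoxic solvent applied preemergence to sandy loam one day after planting, postemergence at the 1–4 leaf stage, or to ~2.5 cm floodwater over silt loam.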

rape = assay: as above; assay type: in vivo, Brassica napus; conditions: POSTEMERGENCE; for Plant response rating, Rape: 0 to 100 scale
Method in brief: as §1

rice = assay: Test C flood test plant response rating 0 to 100; assay type: in vivo, Oryza sativa; conditions: for Plant response rating (0 to 100), Rice Japonica: under POSTEMERGENCE head (flood test species); for Plant response rating Rice Japonica: flood test species listed under POSTEMERGENCE, 0 to 100 scale
Method in brief: as §1

giant foxtail [1] = assay: Test B preemergence/postemergence greenhouse plant response rating 0 to 10; assay type: in vivo, Setaria faberii; conditions: 0 to 10 scale
Method in brief: (§2)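 Test chemicals were sprayed onto freshly planted seed and, concurrently, onto young plants between the one and four leaf stage. After a twelve- to sixteen-day greenhouse period, each species was visually compared with untreated controls.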

soybean [2] = assay: Test C preemergence/postemergence greenhouse plant response rating 0 to 100; assay type: in vivo, Glycine max; conditions: POSTEMERGENCE; for Plant response rating, Soybean: 0 to 100 scale
Method in brief: as §1

lambsquarters = assay: Test B preemergence/postemergence greenhouse plant response rating 0 to 10; assay type: in vivo, Chenopodium album; conditions: 0 to 10 scale
Method in brief: as §2

giant foxtail [3] = assay: Test C preemergence/postemergence greenhouse plant response rating 0 to 100; assay type: in vivo, Setaria faberii; conditions: POSTEMERGENCE; for Plant response rating, Giant foxtail: 0 to 100 scale
Method in brief: as §1

cheatgrass = assay: Test B preemergence/postemergence greenhouse plant response rating 0 to 10; assay type: in vivo, Bromus secalinus; conditions: 0 to 10 scale
Method in brief: as §2

barley [4] = assay: as above; assay type: in vivo, Hordeum vulgare; conditions: 0 to 10 scale
Method in brief: as §2

cocklebur = assay: as above; assay type: in vivo, Xanthium pensylvanicum; conditions: 0 to 10 scale
Method in brief: as §2

barley [5] = assay: Test C preemergence/postemergence greenhouse plant response rating 0 to 100; assay type: in vivo, Hordeum vulgare; conditions: POSTEMERGENCE; for Plant response rating Barley Igri: 0 to 100 scale
Method in brief: as §1

morningglory [6] = assay: as above; assay type: in vivo, Ipomoea hederacea; conditions: POSTEMERGENCE; for Plant response rating, Morningglory: 0 to 100 scale
Method in brief: as §1

velvetleaf = assay: Test B preemergence/postemergence greenhouse plant response rating 0 to 10; assay type: in vivo, Abutilon theophrasti; conditions: 0 to 10 scale
Method in brief: as §2

bedstraw = assay: as above; assay type: in vivo, Galium aparine; conditions: 0 to 10 scale
Method in brief: as §2

chickweed = assay: Test C preemergence/postemergence greenhouse plant response rating 0 to 100; assay type: in vivo, Stellaria media; conditions: POSTEMERGENCE; for Plant response rating, Chickweed: 0 to 100 scale
Method in brief: as §1

sorghum = assay: as above; assay type: in vivo, Sorghum bicolor; conditions: POSTEMERGENCE; for Plant response rating, Sorghum: 0 to 100 scale
Method in brief: as §1

soybean [7] = assay: Test B preemergence/postemergence greenhouse plant response rating 0 to 10; assay type: in vivo, Glycine max; conditions: 0 to 10 scale
Method in brief: as §2

morningglory [8] = assay: as above; assay type: in vivo, Ipomoea hederacea; conditions: 0 to 10 scale
Method in brief: as §2

C#CC(C)Oc1cc(-c2nn3c(c2Cl)CCCC3)c(F)cc1Cl (centres unmarked) [Compound 36]
Plant response rating, Blackgrass (blackgrass; 62 g/ha): 50
Plant response rating, Blackgrass (blackgrass; 125 g/ha): 70
Plant response rating (0 to 100), Blackgrass (blackgrass; Rate 16 g/ha): 30
Plant response rating (0 to 100), Blackgrass (blackgrass; Rate 31 g/ha): 40
Plant response rating, Rape (rape; 62 g/ha): 100
Plant response rating, Rape (rape; 125 g/ha): 100
Plant response rating (0 to 100), Rape (rape; Rate 16 g/ha): 85
Plant response rating (0 to 100), Rape (rape; Rate 31 g/ha): 90
Plant response rating (0 to 100), Rice Japonica (rice; Rate 16 g/ha): 20
Plant response rating (0 to 100), Rice Japonica (rice; Rate 31 g/ha): 35
Plant response rating Rice Japonica (rice; 62 g/ha): 40
Plant response rating Rice Japonica (rice; 125 g/ha): 50
Plant response rating, Giant foxtail (giant foxtail [1]; POSTEMERGENCE, Rate 50 g/ha): 6
Plant response rating, Giant foxtail (giant foxtail [1]; PREEMERGENCE, Rate 50 g/ha): 5
Plant response rating, Giant foxtail (giant foxtail [1]; Rate 200 g/ha, POSTEMERGENCE): 7
Plant response rating, Giant foxtail (giant foxtail [1]; Rate 200 g/ha, PREEMERGENCE): 9
Plant response rating, Soybean (soybean [2]; 62 g/ha): 80
Plant response rating, Soybean (soybean [2]; 125 g/ha): 100
Plant response rating (0 to 100), Soybean (soybean [2]; Rate 16 g/ha): 50
Plant response rating (0 to 100), Soybean (soybean [2]; Rate 31 g/ha): 50
Plant response rating, Lambsquarter (lambsquarters; POSTEMERGENCE, Rate 50 g/ha): 10
Plant response rating, Lambsquarter (lambsquarters; PREEMERGENCE, Rate 50 g/ha): 10
Plant response rating, Lambsquarter (lambsquarters; Rate 200 g/ha, POSTEMERGENCE): 10
Plant response rating, Lambsquarter (lambsquarters; Rate 200 g/ha, PREEMERGENCE): 10
Plant response rating, Giant foxtail (giant foxtail [3]; 62 g/ha): 75
Plant response rating, Giant foxtail (giant foxtail [3]; 125 g/ha): 85
Plant response rating (0 to 100), Giant foxtail (giant foxtail [3]; Rate 16 g/ha): 50
Plant response rating (0 to 100), Giant foxtail (giant foxtail [3]; Rate 31 g/ha): 60
Plant response rating, Cheatgrass (cheatgrass; POSTEMERGENCE, Rate 50 g/ha): 5
Plant response rating, Cheatgrass (cheatgrass; POSTEMERGENCE, Rate 200 g/ha): 7
Plant response rating, Cheatgrass (cheatgrass; PREEMERGENCE, Rate 50 g/ha): 4
Plant response rating, Cheatgrass (cheatgrass; Rate 200 g/ha, PREEMERGENCE): 6
Plant response rating, Barley (barley [4]; POSTEMERGENCE, Rate 50 g/ha): 5
Plant response rating, Barley (barley [4]; POSTEMERGENCE, Rate 200 g/ha): 6
Plant response rating, Barley (barley [4]; PREEMERGENCE, Rate 50 g/ha): 0
Plant response rating, Barley (barley [4]; Rate 200 g/ha, PREEMERGENCE): 2
Plant response rating, Cocklebur (cocklebur; POSTEMERGENCE, Rate 50 g/ha): 9
Plant response rating, Cocklebur (cocklebur; POSTEMERGENCE, Rate 200 g/ha): 10
Plant response rating, Cocklebur (cocklebur; PREEMERGENCE, Rate 50 g/ha): 0
Plant response rating, Cocklebur (cocklebur; Rate 200 g/ha, PREEMERGENCE): 2
Plant response rating Barley Igri (barley [5]; 62 g/ha): 30
Plant response rating Barley Igri (barley [5]; 125 g/ha): 50
Plant response rating (0 to 100), Barley Igri (barley [5]; Rate 16 g/ha): 20
Plant response rating (0 to 100), Barley Igri (barley [5]; Rate 31 g/ha): 30
Plant response rating, Morningglory (morningglory [6]; 62 g/ha): 100
Plant response rating, Morningglory (morningglory [6]; 125 g/ha): 100
Plant response rating (0 to 100), Morningglory (morningglory [6]; Rate 16 g/ha): 80
Plant response rating (0 to 100), Morningglory (morningglory [6]; Rate 31 g/ha): 80
Plant response rating, Velvetleaf (velvetleaf; POSTEMERGENCE, Rate 50 g/ha): 10
Plant response rating, Velvetleaf (velvetleaf; PREEMERGENCE, Rate 50 g/ha): 8
Plant response rating, Velvetleaf (velvetleaf; Rate 200 g/ha, POSTEMERGENCE): 10
Plant response rating, Velvetleaf (velvetleaf; Rate 200 g/ha, PREEMERGENCE): 10
Plant response rating, Bedstraw (bedstraw; POSTEMERGENCE, Rate 50 g/ha): 10
Plant response rating, Bedstraw (bedstraw; POSTEMERGENCE, Rate 200 g/ha): 10
Plant response rating, Bedstraw (bedstraw; PREEMERGENCE, Rate 50 g/ha): 10
Plant response rating, Chickweed (chickweed; 62 g/ha): 80
Plant response rating, Chickweed (chickweed; 125 g/ha): 100
Plant response rating (0 to 100), Chickweed (chickweed; Rate 16 g/ha): 70
Plant response rating (0 to 100), Chickweed (chickweed; Rate 31 g/ha): 80
Plant response rating, Sorghum (sorghum; 62 g/ha): 60
Plant response rating, Sorghum (sorghum; 125 g/ha): 70
Plant response rating (0 to 100), Sorghum (sorghum; Rate 16 g/ha): 40
Plant response rating (0 to 100), Sorghum (sorghum; Rate 31 g/ha): 50
Plant response rating, Soybean (soybean [7]; POSTEMERGENCE, Rate 50 g/ha): 9
Plant response rating, Soybean (soybean [7]; PREEMERGENCE, Rate 50 g/ha): 0
Plant response rating, Soybean (soybean [7]; Rate 200 g/ha, POSTEMERGENCE): 9
Plant response rating, Soybean (soybean [7]; Rate 200 g/ha, PREEMERGENCE): 2
Plant response rating, Morningglory (morningglory [8]; POSTEMERGENCE, Rate 50 g/ha): 8
Plant response rating, Morningglory (morningglory [8]; PREEMERGENCE, Rate 50 g/ha): 0
Plant response rating, Morningglory (morningglory [8]; Rate 200 g/ha, POSTEMERGENCE): 10
Plant response rating, Morningglory (morningglory [8]; Rate 200 g/ha, PREEMERGENCE): 2

Source: patent US6358885B1, “Substituted phenylheterocyclic herbicides” (Mississippi State University, priority 1992, dated 2002)
